Measured values published in the supplement of paper PMC10307832.

Key:
Assay in all cases: relative viability (nuclei count vs DMSO), 5 days (fraction); higher = more cells survive
Entinostat + Foretinib = compound: Nc1ccccc1NC(=O)c1ccc(CNC(=O)OCc2cccnc2)cc1 [Entinostat] + COc1cc2c(Oc3ccc(NC(=O)C4(C(=O)Nc5ccc(F)cc5)CC4)cc3F)ccnc2cc1OCCCN1CCOCC1 [Foretinib] (partner 0.25 µM)
Method in brief: (§1)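 Each reported value is a median over duplicate plates. It expresses relative viability: treated-well nuclei count divided by vehicle-well nuclei count. Lung cancer cell lines in 1536-well plates were dosed by pin tool a day after seeding, alone with one drug or with a fixed anchor-drug dose plus five library-drug doses (not always all listed) in √10 steps, and nuclei were counted after 5 days.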

SGI-1776 + Decitabine = compound: CN1CCC(CNc2ccc3ncc(-c4cccc(OC(F)(F)F)c4)n3n2)CC1 [SGI-1776] + Nc1ncn([C@H]2C[C@H](O)[C@@H](CO)O2)c(=O)n1 [Decitabine] (partner 2 µM)
Method in brief: as §1

[1] = compound: C1COCCN1C2=NC(=NC3=C2OC4=C3C=CC=N4)C5=CC(=CC=C5)NC(=O)C6=CN=C(C=C6)N + COc1cccc2cc(-c3nc([C@H]4CC[C@H](C(=O)O)CC4)n4ncnc(N)c34)[nH]c12 [OSI-027] (partner 0.5 µM)
Method in brief: as §1

[2] = compound: C1COCCN1C2=NC(=NC3=C2OC4=C3C=CC=N4)C5=CC(=CC=C5)NC(=O)C6=CN=C(C=C6)N + Nc1ncn([C@H]2C[C@H](O)[C@@H](CO)O2)c(=O)n1 [Decitabine] (partner 2 µM)
Method in brief: as §1

Cell Line	relative viability (Entinostat + Foretinib; first compound 0.02 µM)	relative viability (Entinostat + Foretinib; first compound 0.06325 µM)	relative viability (Entinostat + Foretinib; first compound 0.2 µM)	relative viability (Entinostat + Foretinib; first compound 0.6325 µM)	relative viability (Entinostat + Foretinib; first compound 2 µM)	relative viability (SGI-1776 + Decitabine; first compound 0.08 µM)	relative viability (SGI-1776 + Decitabine; first compound 0.8 µM)	relative viability (SGI-1776 + Decitabine; first compound 2.53 µM)	relative viability (SGI-1776 + Decitabine; first compound 8 µM)	relative viability ([1]; first compound 0.02 µM)	relative viability ([1]; first compound 0.06325 µM)	relative viability ([1]; first compound 0.2 µM)	relative viability ([1]; first compound 0.6325 µM)	relative viability ([1]; first compound 2 µM)	relative viability ([2]; first compound 0.02 µM)	relative viability ([2]; first compound 0.06325 µM)	relative viability ([2]; first compound 0.2 µM)	relative viability ([2]; first compound 0.6325 µM)	relative viability ([2]; first compound 2 µM)
LOU-NH91	0.937	0.984	0.919	0.844	0.779	0.853	0.811	0.799	0.705	0.699	0.686	0.739	0.68	0.657	0.792	0.843	0.822	0.794	0.746
LU99A	0.773	0.739	0.76	0.579	0.442	0.859	0.872	0.94	0.876	0.308	0.288	0.241	0.274	0.267	0.864	0.745	0.937	0.806	0.445
LXF-289	1.01	0.916	0.88	0.825	0.59	0.384	0.366	0.369	0.326	0.814	0.884	0.768	0.748	0.351	0.36	0.438	0.329	0.457	0.409
NCI-H23	1.05	1.09	1.01	0.445	0.43	0.326	0.323	0.35	0.305	0.605	–	0.435	0.351	0.398	0.285	0.371	0.288	0.378	0.277
NCI-H322M	0.978	1.16	1.15	0.993	0.854	0.724	0.753	0.65	0.658	0.526	0.523	0.544	0.49	0.416	0.708	0.64	0.695	0.69	0.64
NCI-H358	0.755	0.81	0.66	0.41	0.124	0.223	0.245	0.191	0.133	–	0.832	0.702	0.601	0.443	0.221	0.212	0.211	0.247	0.182
NCI-H441	1.08	1.05	0.805	0.377	0.298	0.26	0.26	0.236	0.22	0.588	0.511	0.507	0.58	0.327	0.23	0.298	0.27	0.326	0.248
NCI-H460	0.967	0.954	0.699	0.193	0.0625	0.476	0.61	0.49	0.494	0.578	0.639	0.505	0.237	0.185	0.55	0.563	0.517	0.525	0.195
NCI-H520	0.686	0.941	0.803	0.683	0.626	0.46	0.523	0.511	0.414	0.263	0.257	0.233	0.263	0.211	0.47	0.521	0.588	0.55	0.44
NCI-H596	0.851	0.727	0.913	0.698	0.655	1.02	1.05	1.15	0.997	0.674	0.735	0.65	0.526	0.373	0.951	0.971	1.15	–	1.07
NCI-H647	1.23	1.12	0.826	0.465	0.23	0.409	0.392	0.44	0.339	0.572	0.722	0.748	0.442	0.306	0.524	0.478	0.527	0.519	0.325
NCI-H650	1.16	0.933	1.04	0.839	0.477	0.337	0.32	0.341	0.313	0.545	0.511	0.488	0.474	0.478	0.315	0.361	0.333	0.443	0.494
NCI-H661	0.929	0.963	0.923	0.697	0.575	0.572	0.606	0.501	0.471	0.709	0.7	0.659	0.619	0.539	0.593	0.578	0.603	0.63	0.444
NCI-H727	0.753	0.782	0.794	0.679	0.521	0.875	1.01	1.01	0.613	0.542	0.517	0.624	0.588	0.541	0.884	0.851	0.785	1	0.862
NCI-H838	1.05	1.23	1.12	0.746	0.321	0.46	0.45	0.435	0.437	0.348	0.381	0.348	0.31	0.278	0.437	0.437	0.413	0.5	0.371
NCI-H1355	0.903	0.91	0.751	0.695	0.571	0.342	0.313	0.416	0.359	0.397	0.401	0.336	0.359	0.363	0.377	0.374	0.372	0.43	0.418
NCI-H1395	1	1.03	0.994	0.846	0.68	0.721	0.708	0.58	0.674	0.562	0.49	0.523	0.604	0.519	0.719	0.672	0.75	0.788	0.849

Cell Line	relative viability (Entinostat + Foretinib; first compound 0.02 µM)	relative viability (Entinostat + Foretinib; first compound 0.06325 µM)	relative viability (Entinostat + Foretinib; first compound 0.2 µM)	relative viability (Entinostat + Foretinib; first compound 0.6325 µM)	relative viability (Entinostat + Foretinib; first compound 2 µM)	relative viability (SGI-1776 + Decitabine; first compound 0.08 µM)	relative viability (SGI-1776 + Decitabine; first compound 0.8 µM)	relative viability (SGI-1776 + Decitabine; first compound 2.53 µM)	relative viability (SGI-1776 + Decitabine; first compound 8 µM)	relative viability ([1]; first compound 0.02 µM)	relative viability ([1]; first compound 0.06325 µM)	relative viability ([1]; first compound 0.2 µM)	relative viability ([1]; first compound 0.6325 µM)	relative viability ([1]; first compound 2 µM)	relative viability ([2]; first compound 0.02 µM)	relative viability ([2]; first compound 0.06325 µM)	relative viability ([2]; first compound 0.2 µM)	relative viability ([2]; first compound 0.6325 µM)	relative viability ([2]; first compound 2 µM)
NCI-H1437	0.992	0.804	0.456	0.352	0.261	0.553	0.598	0.645	0.495	0.816	0.844	0.791	0.6	0.535	0.574	0.646	0.615	0.696	0.458
NCI-H1650	1.08	1.06	1.11	0.681	0.57	0.456	0.388	0.473	0.342	0.657	0.617	0.434	0.548	0.397	0.415	0.401	0.58	0.661	0.461
NCI-H1651	0.817	0.855	0.851	0.632	0.394	0.622	0.726	0.65	0.499	0.643	0.812	0.703	0.617	0.472	0.65	0.643	0.614	0.66	0.568
NCI-H1666	1.06	1.02	0.964	0.537	0.366	0.8	0.737	0.729	0.663	0.949	0.816	0.79	0.777	0.546	0.815	0.752	0.692	0.715	0.623
NCI-H1734	0.883	0.939	0.929	0.773	0.603	0.517	0.499	0.567	0.486	0.719	0.638	0.576	0.542	0.417	0.534	0.575	0.482	0.537	0.484
NCI-H1755	0.901	0.864	0.805	0.713	0.421	0.714	0.695	0.717	0.622	0.797	0.738	0.797	0.622	0.558	0.693	0.71	0.714	0.722	0.628
NCI-H1793	0.678	0.753	0.782	0.472	0.326	0.49	0.512	0.516	0.509	0.253	0.301	0.251	0.177	0.233	0.445	0.514	0.457	0.602	0.407
NCI-H1915	1.06	1.06	1.07	1	0.592	0.271	0.258	0.268	0.221	0.639	0.663	0.647	0.599	0.5	0.255	0.261	0.26	0.559	0.335
NCI-H1944	1	0.711	0.472	0.364	0.218	0.427	0.439	0.468	0.396	0.401	0.439	0.366	0.345	0.272	0.418	0.474	0.456	0.527	0.476
NCI-H1975	0.904	0.78	0.64	0.326	0.224	0.43	0.391	0.431	0.377	0.728	0.708	0.5	0.388	0.353	0.347	0.396	0.37	0.381	0.371
NCI-H1993	0.891	0.686	0.664	0.618	0.637	0.56	0.664	0.522	0.503	0.554	0.57	0.567	0.548	0.549	0.549	0.293	0.531	0.547	0.57
NCI-H2009	1.15	1.19	1.19	0.942	0.894	0.388	0.374	0.36	0.342	0.577	0.628	0.533	0.441	0.386	0.373	0.367	0.415	0.456	0.395
NCI-H2023	0.765	0.749	0.408	0.162	0.11	0.224	0.207	0.228	0.182	0.369	0.419	0.277	0.182	0.167	0.248	0.246	0.23	0.325	0.191
NCI-H2085	1.01	0.969	0.984	0.54	0.401	0.549	0.505	0.606	0.556	0.792	0.829	0.62	0.46	0.44	0.486	0.626	0.57	0.649	0.559
NCI-H2087	1.18	1.04	0.89	0.352	0.256	0.331	0.26	0.278	0.215	0.508	0.508	0.47	0.472	0.267	0.267	0.281	0.255	0.332	0.211
NCI-H2126	1.12	1.06	1.05	0.572	0.415	0.575	0.576	0.559	0.54	0.664	0.767	0.652	0.675	0.708	0.54	0.608	0.606	0.613	0.503
